In patent US20240408170A1, “COMPOSITION FOR DECOMPOSITION OF TRYPSIN OR TMPRSS2” (Riken, priority 2021, published 2024):

Columns and labels:
[1] = target: T1, recombinant mouse PRSS2 (Mus musculus, UniProt P07146); experiment: Trypsin decomposition in vitro by bacteria (western blot); type: biochemical; conditions: bacteria or culture supernatant incubated with recombinant mouse trypsin
T1 construct: purchased Sino Biological, Inc. 50383-M08H
T1 sequence (P07146 24-246): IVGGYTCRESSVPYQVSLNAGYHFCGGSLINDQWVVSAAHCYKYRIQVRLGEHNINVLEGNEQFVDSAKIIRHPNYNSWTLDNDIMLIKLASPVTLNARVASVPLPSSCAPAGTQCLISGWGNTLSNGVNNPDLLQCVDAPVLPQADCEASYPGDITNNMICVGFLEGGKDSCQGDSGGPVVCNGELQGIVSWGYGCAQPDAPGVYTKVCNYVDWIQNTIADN
Description: (§1) Mouse faecal samples were suspended and diluted 50-fold with phosphate buffered saline (PBS) to which a protease inhibitor cocktail (Roche) was added. Subsequently, the suspended sample was centrifuged at 15,000×g for 10 minutes at 4° C., and the supernatant was subjected to western blot. Mouse pancreatic tissue was rapidly frozen in liquid nitrogen. Proteins were extracted by TRIzol Reagent (Thermo Fisher Scientific K.K.), and the final protein concentration was adjusted to 4 μg/μL. For SDS-PAGE and blotting, Novex (registered trademark) NuPAGE (registered trademark) SDS-PAGE Gel system (Thermo Fisher Scientific K.K.) and iBlot™ 2 Dry Blotting System (Thermo Fisher Scientific K.K.) were used according to the manufacturer's instructions.
The bacteria cultured overnight were incubated with recombinant mouse trypsin (final concentration: 1 μg/mL) for 1 hour or with human trypsin (final concentration: 20 μg/mL) for 4 hours. Recombinant trypsin isoforms used were as follows: recombinant mouse PRSS2 (50383-M08H, Sino Biological, Inc.), recombinant human PRSS1 (LS-G135640), recombinant human PRSS2 (LS-G20167), and recombinant human PRSS3 (His-tag) (NBP2-52220).
In some experiments, recombinant mouse PRSS2 was first treated with one of the following trypsin inhibitors for 30 minutes before incubation with a P. clara culture solution. AEBSF (Sigma-Aldrich, final concentration: 2 mM), Leupeptin (Sigma-Aldrich, final concentration: 100 μM), and TLCK (Abcam plc., final concentration: 100 μM).
In some experiments, P. clara was cultured overnight in the presence of Tunicamycin (Sigma-Aldrich, final concentration: 10 μg/mL), 2-Fluoro-L-fucose (Cayman Chemical Company, final concentration: 250 μM), or the corresponding DMSO control, before incubation with recombinant mouse PRSS2.
In the experiment of evaluating the effect of Ca^2+, P. clara was cultured in a low Ca^2+ mGAM medium supplemented with or without 1 mM of Ca^2+, before incubation with recombinant mouse PRSS2. In the experiment in which the supernatant of P. clara was used, P. clara cultured overnight was filtered through a sterilization filter unit formed using a PVDF film having a pore size of 0.22 μm.

[2] = tested on: IgA heavy chain; experiment: Western blot of faeces of GF mice inoculated with P. clara strain together with 2-mix; type: in vivo, mouse; conditions: compared to Δ00502 or Δ00509
Description: as §1
The antibodies used are as follows. […]

[3] = tested on: IgA heavy chain; experiment: Ex vivo incubation of mouse faeces at 37° C. for 48 hours, western blot; conditions: faeces of GF mice inoculated together with 2-mix, 37° C. 48 hours
Description: (§2) Mouse faecal samples were suspended and diluted 50-fold with phosphate buffered saline (PBS) to which a protease inhibitor cocktail (Roche) was added. Subsequently, the suspended sample was centrifuged at 15,000×g for 10 minutes at 4° C., and the supernatant was subjected to western blot. Mouse pancreatic tissue was rapidly frozen in liquid nitrogen. Proteins were extracted by TRIzol Reagent (Thermo Fisher Scientific K.K.), and the final protein concentration was adjusted to 4 μg/μL. For SDS-PAGE and blotting, Novex (registered trademark) NuPAGE (registered trademark) SDS-PAGE Gel system (Thermo Fisher Scientific K.K.) and iBlotTM 2 Dry Blotting System (Thermo Fisher Scientific K.K.) were used according to the manufacturer's instructions. The antibodies used are as follows. A rabbit anti-mouse PRSS2 antibody (Cosmo Bio Co., Ltd.), a rabbit anti-mouse HSP90 antibody (#4877, Cell Signaling Technology, Inc.), a rabbit anti-human PRSS2 antibody (LS-B15726, LSBio), a rabbit anti-human PRSS1 antibody (LS-331381, LSBio), a rabbit anti-mouse TMPRSS2 antibody (LS-C373022, LSBio, against the sequence of the protease domain), a rabbit anti-6-His antibody ([…]-[…], Bethyl Laboratories, Inc.), a goat anti-mouse IgA a chain antibody (HRP) (ab97235, Abcam plc.), a rat anti-mouse κ chain antibody (HRP) (ab99632, Abcam plc.), a rabbit anti-mouse CELA3b antibody (OACD03205, Aviva Systems Biology Corporation), an anti-rabbit IgG antibody (HRP) (#7074, Cell Signaling Technology, Inc.), and a rabbit anti-mouse Reg3 antibody (51153-[…], Sino Biological, Inc.).

[4] = target: T2, trypsin (PRSS2) (Mus musculus, UniProt P07146); experiment: as above; conditions: faeces of GF mice inoculated together with 2-mix, 37° C. 48 hours
T2 construct: the anionic trypsin protease was abundantly present in the cecal contents and the faeces; from tissue; host or cells: faeces and cecal contents of germ-free / gnotobiotic mice
T2 sequence (P07146 24-246): T1 sequence (P07146 24-246)
Description: as §2

Paraprevotella clara [JCM 14859]
decomposition of rmPRSS2 (western blot) [1]: effect of reducing trypsin | IgA heavy chain in the faeces [2]: larger amount | IgA heavy chain in faeces [3]: remained | trypsin in faeces [4]: reduced
